For test [1], the target named is Metabotropic glutamate receptor 4 (Rattus norvegicus, UniProt P31423). Put plainly: Modulation of the Metabotropic Glutamate Receptor mGluR4: Rat PAM Potency. [Related pubchem assays (depositor defined):AID2437, AID2807]. The test is classed as functional.
The target in test [2] is NACHT, LRR and PYD domains-containing protein 3 (Homo sapiens, UniProt Q96P20). As to the kind of experiment: NALP3 inhibitors in yeast, dose response, luminescent (AID 488799). The test is classed as functional.
In another test the target is X-box-binding protein 1 (Homo sapiens, UniProt P17861). The test is classed as functional, Cricetulus griseus.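 Also: confirmatory dose-response counter-screen serving a CHOP assay.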
Another test concerns the target T1, Coagulation factor XII (Homo sapiens, UniProt P00748).
T1 sequence (P00748 whole entry): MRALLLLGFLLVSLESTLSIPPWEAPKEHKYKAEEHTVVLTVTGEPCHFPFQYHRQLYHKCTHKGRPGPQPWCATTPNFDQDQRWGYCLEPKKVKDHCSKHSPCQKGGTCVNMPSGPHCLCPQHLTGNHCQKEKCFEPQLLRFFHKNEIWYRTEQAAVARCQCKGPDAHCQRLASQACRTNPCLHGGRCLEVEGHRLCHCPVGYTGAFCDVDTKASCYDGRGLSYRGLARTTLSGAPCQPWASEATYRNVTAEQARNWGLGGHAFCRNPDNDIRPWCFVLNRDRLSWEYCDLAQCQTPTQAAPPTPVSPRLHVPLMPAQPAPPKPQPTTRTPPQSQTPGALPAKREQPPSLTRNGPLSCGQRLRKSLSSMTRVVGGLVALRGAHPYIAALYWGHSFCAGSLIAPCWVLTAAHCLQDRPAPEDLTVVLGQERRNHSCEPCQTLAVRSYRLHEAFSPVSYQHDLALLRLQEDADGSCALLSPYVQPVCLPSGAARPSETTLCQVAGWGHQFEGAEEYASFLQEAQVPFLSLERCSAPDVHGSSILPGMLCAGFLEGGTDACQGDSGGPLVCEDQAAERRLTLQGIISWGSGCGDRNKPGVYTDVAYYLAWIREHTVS
As to the kind of experiment: FXIIa inhibitor potency, concentration-response, biochemical (AID 716). The class given is functional.

For test [3], the target named is FAD-linked sulfhydryl oxidase ALR (Homo sapiens, UniProt P55789). As to the kind of experiment: inhibitors of human ALR sulfhydryl oxidase, dose response, biochemical, H2O2 detection, luminescence, cherry-pick (AID 493248).
The target in test [4] is Potassium voltage-gated channel subfamily KQT member 2 (Rattus norvegicus, UniProt O88943). Put plainly: retigabine-insensitive KCNQ2 potentiators, concentration-response, dose response, cell-based, retigabine-insensitive compounds (AID 2654). The class given is functional.
Test [5] addresses Potassium voltage-gated channel subfamily KQT member 2 (Rattus norvegicus, UniProt O88943, W236L). As to the kind of experiment: KCNQ2 channel potentiators, dose response, mechanism study for KCNQ2 potentiator project, cell-based, automated electrophysiology (AID 2603). The class given is functional.
Another test concerns the target ORF 73 (Human herpesvirus 8, UniProt O40947). Put plainly: inhibitors of C-LANA binding to LBS DNA, dose response, biochemical, fluorescence polarization, cherry-picked samples (AID 504725).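 Also: fluorescence polarization of a labeled DNA duplex reporting LANA DNA binding; potency is for inhibitors that block LANA binding to the DNA.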 Also noted: species or system Human gammaherpesvirus 8. A general note: Fluorescence polarisation rises when a labelled molecule tumbles more slowly, as on binding a larger partner.

Test [6] concerns the target T2, Rac GTPase-activating protein 1 (Homo sapiens, UniProt Q9H0H5).
T2 sequence (Q9H0H5 whole entry): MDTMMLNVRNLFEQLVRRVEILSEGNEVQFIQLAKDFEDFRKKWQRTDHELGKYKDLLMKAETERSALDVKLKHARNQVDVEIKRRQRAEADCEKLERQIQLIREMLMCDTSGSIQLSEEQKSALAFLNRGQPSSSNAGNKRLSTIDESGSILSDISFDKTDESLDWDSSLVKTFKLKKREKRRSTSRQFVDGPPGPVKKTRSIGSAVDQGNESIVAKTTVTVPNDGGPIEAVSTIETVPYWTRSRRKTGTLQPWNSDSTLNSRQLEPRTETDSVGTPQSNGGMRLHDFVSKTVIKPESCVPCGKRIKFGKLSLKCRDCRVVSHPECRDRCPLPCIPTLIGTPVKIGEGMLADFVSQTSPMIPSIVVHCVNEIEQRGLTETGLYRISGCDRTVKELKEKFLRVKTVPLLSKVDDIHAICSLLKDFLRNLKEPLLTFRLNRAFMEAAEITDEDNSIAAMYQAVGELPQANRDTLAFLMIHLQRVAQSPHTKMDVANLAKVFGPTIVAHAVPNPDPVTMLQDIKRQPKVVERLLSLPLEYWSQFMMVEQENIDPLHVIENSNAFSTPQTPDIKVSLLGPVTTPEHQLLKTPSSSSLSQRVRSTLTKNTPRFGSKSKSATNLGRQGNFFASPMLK
As to the kind of experiment: MgcRacGAP GTPase-activating activity inhibitors, confirmation, biochemical, ADP Hunter fluorescence, primary and confirmatory (AID 624330). The class given is functional.

The next test relates to HeLa. Put plainly: HeLa cell cytotoxicity, dose response, cytotoxicity control, 24 h, cherry-picked samples (AID 504726).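 Also: potency for cytotoxicity as loss of luminescence signal.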 The class given is functional, cell-based. The note with it: Homo sapiens.
The next test concerns Salmon testes DNA. Put plainly: DNA intercalators displacing acridine orange, dose response, artefact control for KSHV LANA DNA-binding inhibitor project, biochemical, fluorescence polarization, cherry-picked samples, set 2 (AID 504727). On the set-up: species or system Salmonidae.
A further test deals with Keap1/Nrf2 (Homo sapiens, UniProt Q14145). As to the kind of experiment: Keap1-Nrf2 protein-protein interaction inhibitors, dose response, biochemical, fluorescence polarization, cherry-picked samples (AID 588683).
Another test has as its system Streptococcus. Put plainly: Group A Streptococcus viability loss, dose response, counter-screen for streptokinase expression inhibitor project, luminescence, BacTiterGlo (AID 1915).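 Also: potency for reduction of bacterial viability or growth.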 The class given is functional, organism-based.
Test [7] can be described thus: Luminescence Cell-Based Dose Retest to Confirm Inhibitors of Cancer Stem Cells. [Related pubchem assays (depositor defined):AID2717, AID2721]. The note with it: Homo sapiens. The test is classed as functional.
Test [8] relates to Streptococcus sp. 'group A'. Put plainly: growth inhibition of control SK(-) GAS strain, dose response, counter-screen for streptokinase expression inhibitor project, luminescence, kanamycin, BacTiterGlo, confirmation (AID 1900). The test is classed as functional, organism-based. (The purpose of a counterscreen is to sort out artefacts and off-target activity.)
A further test concerns the target T3, Streptokinase A (Streptococcus pyogenes serotype M1, UniProt P10520).
T3 sequence (P10520 whole entry): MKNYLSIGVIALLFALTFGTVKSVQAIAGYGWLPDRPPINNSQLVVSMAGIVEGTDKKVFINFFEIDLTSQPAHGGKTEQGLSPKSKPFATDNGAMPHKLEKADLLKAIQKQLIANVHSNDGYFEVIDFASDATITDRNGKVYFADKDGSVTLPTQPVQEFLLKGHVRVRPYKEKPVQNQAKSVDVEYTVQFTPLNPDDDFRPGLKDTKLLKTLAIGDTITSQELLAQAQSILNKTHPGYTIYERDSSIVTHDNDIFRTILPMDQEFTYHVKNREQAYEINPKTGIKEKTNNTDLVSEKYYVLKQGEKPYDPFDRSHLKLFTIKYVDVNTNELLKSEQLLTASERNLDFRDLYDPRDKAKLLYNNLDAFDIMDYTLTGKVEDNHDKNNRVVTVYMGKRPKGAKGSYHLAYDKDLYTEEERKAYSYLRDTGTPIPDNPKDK
Put plainly: S. pyogenes streptokinase expression inhibitors, potency, dose response, plasminogen activation absorbance, OD405 (AID 1914).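 Also: secreted streptokinase activity via plasminogen activation per viability signal from cell pellet.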 The test is classed as functional, Streptococcus pyogenes M1 GAS.

The source made the active and inactive calls.

Sequence of NACHT, LRR and PYD domains-containing protein 3 (Q96P20 whole entry, the tested form may be a part): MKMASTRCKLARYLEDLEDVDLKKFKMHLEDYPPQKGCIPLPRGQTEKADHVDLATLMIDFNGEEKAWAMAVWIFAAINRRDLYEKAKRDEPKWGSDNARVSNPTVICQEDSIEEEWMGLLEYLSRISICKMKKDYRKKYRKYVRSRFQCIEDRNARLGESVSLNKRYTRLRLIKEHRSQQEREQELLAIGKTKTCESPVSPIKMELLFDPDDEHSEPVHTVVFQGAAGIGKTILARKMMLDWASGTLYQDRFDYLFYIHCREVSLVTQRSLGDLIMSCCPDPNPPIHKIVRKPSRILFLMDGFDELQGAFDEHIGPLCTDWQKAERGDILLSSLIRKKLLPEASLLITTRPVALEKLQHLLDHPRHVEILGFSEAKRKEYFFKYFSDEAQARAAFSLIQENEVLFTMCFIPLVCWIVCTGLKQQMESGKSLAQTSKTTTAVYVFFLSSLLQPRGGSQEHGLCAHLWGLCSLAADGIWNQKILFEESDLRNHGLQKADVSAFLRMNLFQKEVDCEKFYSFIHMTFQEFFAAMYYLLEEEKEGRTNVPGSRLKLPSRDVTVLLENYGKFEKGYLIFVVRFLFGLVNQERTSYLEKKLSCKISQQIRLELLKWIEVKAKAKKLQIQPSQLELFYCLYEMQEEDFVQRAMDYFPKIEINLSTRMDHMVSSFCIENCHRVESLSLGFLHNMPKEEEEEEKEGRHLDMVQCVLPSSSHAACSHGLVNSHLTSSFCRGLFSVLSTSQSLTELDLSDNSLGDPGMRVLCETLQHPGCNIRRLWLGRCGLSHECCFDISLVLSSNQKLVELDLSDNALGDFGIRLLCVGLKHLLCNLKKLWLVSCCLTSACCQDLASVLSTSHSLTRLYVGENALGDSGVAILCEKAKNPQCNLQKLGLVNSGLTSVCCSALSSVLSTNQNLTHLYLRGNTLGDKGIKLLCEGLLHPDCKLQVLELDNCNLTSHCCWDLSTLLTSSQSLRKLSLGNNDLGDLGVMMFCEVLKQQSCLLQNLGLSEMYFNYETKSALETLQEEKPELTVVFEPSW
Sequence of Potassium voltage-gated channel subfamily KQT member 2 (Rattus norvegicus, UniProt O88943, W236L) (O88943 whole entry W236L): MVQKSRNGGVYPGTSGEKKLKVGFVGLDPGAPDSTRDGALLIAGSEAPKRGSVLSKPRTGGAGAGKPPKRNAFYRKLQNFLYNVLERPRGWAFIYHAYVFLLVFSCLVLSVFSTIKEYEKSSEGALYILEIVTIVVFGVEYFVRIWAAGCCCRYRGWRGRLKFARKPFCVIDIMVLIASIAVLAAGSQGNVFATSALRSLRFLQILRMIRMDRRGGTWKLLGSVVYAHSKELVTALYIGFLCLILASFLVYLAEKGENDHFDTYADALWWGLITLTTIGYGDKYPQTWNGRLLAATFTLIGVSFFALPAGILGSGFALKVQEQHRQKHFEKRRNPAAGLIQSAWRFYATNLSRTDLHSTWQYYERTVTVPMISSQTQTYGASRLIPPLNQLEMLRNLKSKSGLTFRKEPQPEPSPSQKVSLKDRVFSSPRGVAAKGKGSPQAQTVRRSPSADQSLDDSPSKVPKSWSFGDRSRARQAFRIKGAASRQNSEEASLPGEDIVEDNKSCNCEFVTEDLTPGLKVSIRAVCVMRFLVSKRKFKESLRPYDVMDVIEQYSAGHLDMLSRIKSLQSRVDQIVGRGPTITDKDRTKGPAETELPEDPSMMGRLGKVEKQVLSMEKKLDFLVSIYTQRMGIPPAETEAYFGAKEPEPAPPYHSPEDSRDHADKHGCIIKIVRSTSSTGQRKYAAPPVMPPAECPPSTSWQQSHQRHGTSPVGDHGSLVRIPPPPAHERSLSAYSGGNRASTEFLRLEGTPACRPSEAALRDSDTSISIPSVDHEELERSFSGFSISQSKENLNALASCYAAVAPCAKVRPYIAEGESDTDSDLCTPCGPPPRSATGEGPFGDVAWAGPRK
Sequence of Keap1/Nrf2 (Q16236 whole entry): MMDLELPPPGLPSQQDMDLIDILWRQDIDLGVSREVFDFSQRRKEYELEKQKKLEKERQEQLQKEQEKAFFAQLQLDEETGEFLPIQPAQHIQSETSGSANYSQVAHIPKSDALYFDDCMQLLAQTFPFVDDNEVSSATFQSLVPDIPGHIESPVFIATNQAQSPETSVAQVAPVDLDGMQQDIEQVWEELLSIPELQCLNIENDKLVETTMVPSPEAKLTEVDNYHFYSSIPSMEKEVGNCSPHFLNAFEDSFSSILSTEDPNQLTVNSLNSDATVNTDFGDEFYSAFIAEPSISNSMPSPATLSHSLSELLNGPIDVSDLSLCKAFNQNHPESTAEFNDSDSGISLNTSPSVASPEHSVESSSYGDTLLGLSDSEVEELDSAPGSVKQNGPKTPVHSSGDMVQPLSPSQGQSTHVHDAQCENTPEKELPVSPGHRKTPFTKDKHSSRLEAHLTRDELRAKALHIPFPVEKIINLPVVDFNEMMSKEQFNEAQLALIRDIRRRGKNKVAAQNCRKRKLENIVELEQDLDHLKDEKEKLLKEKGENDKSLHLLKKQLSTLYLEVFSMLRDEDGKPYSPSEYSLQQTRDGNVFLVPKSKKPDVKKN
Sequence of Keap1/Nrf2 (Q14145 whole entry): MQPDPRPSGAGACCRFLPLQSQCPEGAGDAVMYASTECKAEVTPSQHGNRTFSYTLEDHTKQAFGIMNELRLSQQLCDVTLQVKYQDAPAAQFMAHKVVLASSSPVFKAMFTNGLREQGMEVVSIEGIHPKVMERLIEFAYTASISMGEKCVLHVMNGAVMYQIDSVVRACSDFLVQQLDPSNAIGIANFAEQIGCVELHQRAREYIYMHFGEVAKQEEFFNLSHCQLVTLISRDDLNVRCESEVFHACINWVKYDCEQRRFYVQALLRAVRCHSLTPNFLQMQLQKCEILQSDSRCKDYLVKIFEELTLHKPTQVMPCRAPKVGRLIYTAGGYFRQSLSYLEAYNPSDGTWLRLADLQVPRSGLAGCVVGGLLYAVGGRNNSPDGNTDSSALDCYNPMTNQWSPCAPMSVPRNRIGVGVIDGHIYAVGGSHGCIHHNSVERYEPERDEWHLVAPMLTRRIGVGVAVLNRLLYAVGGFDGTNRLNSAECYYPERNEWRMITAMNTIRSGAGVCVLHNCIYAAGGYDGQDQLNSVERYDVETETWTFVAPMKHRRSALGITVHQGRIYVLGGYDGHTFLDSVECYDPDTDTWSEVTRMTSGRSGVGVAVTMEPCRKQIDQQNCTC
Sequence of FAD-linked sulfhydryl oxidase ALR (P55789 whole entry): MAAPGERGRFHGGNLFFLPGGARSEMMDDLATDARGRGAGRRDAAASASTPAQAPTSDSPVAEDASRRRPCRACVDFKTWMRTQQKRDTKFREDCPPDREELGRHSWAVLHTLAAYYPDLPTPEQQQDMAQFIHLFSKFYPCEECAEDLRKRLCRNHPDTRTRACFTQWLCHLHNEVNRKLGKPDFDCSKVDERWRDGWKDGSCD
Sequence of X-box-binding protein 1 (P17861 whole entry): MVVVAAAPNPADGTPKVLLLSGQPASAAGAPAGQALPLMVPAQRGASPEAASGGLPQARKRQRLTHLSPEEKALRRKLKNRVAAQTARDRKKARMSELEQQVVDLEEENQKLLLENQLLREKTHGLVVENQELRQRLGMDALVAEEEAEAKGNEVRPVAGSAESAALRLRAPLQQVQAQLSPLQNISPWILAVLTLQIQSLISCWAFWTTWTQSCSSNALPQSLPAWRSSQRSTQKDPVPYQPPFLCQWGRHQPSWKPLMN
Sequence of Potassium voltage-gated channel subfamily KQT member 2 (Rattus norvegicus, UniProt O88943) (O88943 whole entry): as the sequence (O88943 whole entry W236L) above, with L236W counted along it
Sequence of ORF 73 (O40947 whole entry): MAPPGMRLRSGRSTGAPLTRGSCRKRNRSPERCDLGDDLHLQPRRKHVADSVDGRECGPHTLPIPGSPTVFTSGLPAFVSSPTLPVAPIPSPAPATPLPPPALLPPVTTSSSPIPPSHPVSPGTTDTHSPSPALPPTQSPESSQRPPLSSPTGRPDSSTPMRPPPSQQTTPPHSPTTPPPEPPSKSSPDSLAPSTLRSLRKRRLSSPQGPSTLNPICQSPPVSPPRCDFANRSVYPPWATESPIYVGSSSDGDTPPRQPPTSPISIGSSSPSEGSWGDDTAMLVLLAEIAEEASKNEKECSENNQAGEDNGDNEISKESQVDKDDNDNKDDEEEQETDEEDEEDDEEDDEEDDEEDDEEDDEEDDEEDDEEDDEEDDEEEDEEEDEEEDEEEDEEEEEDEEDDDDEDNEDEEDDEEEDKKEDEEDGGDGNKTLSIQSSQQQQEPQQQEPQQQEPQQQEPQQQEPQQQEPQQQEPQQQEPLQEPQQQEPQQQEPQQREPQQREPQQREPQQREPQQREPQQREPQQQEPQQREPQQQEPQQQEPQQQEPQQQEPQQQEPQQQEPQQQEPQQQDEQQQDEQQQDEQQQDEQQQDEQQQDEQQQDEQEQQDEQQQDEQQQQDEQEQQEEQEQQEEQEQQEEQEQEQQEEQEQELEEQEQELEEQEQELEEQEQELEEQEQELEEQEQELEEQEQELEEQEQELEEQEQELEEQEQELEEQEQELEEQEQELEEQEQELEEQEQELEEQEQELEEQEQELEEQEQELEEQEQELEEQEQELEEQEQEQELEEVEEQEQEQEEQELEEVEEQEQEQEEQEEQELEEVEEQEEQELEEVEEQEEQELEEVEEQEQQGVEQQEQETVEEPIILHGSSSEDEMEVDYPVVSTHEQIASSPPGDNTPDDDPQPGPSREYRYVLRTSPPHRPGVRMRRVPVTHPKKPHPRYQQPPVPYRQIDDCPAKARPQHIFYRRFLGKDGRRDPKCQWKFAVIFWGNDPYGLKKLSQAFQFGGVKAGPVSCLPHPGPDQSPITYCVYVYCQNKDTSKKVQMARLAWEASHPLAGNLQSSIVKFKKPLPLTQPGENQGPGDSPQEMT

The term EC50 denotes the concentration that produces a half-maximal response. `O=C(Nc1ccc(NC(=O)c2ccccc2Cl)c(F)c1)c1ccccn1`: in test [1], the EC50 is 0.74 µM (active).

Broadly, the IC50 is the concentration that gives 50% inhibition. Take `c1ccc(OCc2nnnn2-c2ccccc2)cc1`: in test [2], the IC50 is 6 µM (active).

With `O=C1CC(c2ccccc2Cl)CC(=O)C1=CNc1ccccc1` (stereo unspecified), on X-box-binding protein 1, the “Absolute IC50 (XBP1)” value stood at 10 µM.

For orientation: AC50 means the concentration at which the activity in the assay is half-maximal. Turning to `CC(C)C1C(C#N)=C(N)Oc2[nH]nc(-c3cccs3)c21` (stereo unspecified), at Coagulation factor XII, the IC50 was > 50 µM (inactive). In [3], the AC50 was 6.41 µM (active).

With `S=C(Nc1ccc(Oc2ccccc2)cc1)Nc1cccnc1`, the EC50 in test [4] is 4.45 µM (active); in [5] it was 7.25 µM (active).

In the case of `COc1ccc(NC(=O)c2cccc(-c3ccc(O)cc3)c2)cn1`, the AC50 is 34.3 µM (active) at ORF 73; 144 µM (active) in the test with HeLa; 45.4 µM (active) with Salmon testes DNA; 43.8 µM (active) on Keap1/Nrf2; 4.31 µM (active) in [7]. In addition, in [6], the IC50 was 42.3 µM (active). For the same molecule, the figures for the EC50 (in the test with Streptococcus; in test [8]; on Streptokinase A) were > 150 µM (not active), 16.9 µM (active) and > 150 µM (not active), respectively.
